Measurements from patent US20250263436A1, “BROAD-SPECTRUM ANTIVIRAL DRUG FOR ENTEROVIRUS, AND APPLICATION” (WUHAN INSTITUTE OF VIROLOGY, CHINESE ACADEMY OF SCIENCES, priority 2020, published 2025).
Where “and” joins values, the source holds several entries; their conditions need not be identical. Identical values can stand only once.

How the values were obtained:
EV71 [1] = assay: Inhibition of EV71 in Vero cells (viral RNA, qRT-PCR); assay type: cell-based, enterovirus 71 (EV71); settings: anti-EV71 in Vero cells
Procedure: (§1) (1) Different cells were plated in a 24-well plate.
(§2) (2) When the cells grew to a confluence of 70%-80%, the DMEM medium containing 10% serum was replaced with a DMEM medium containing 2% serum (the DMEM medium containing 2% serum was added in each well at an amount of 0.5 mL), and 5 μL of EV71 virus of 1×10^6 PFU/mL was added to each well.
(§3) (3) After 1 h, different polypeptides (RQ or control TAT) with final concentrations of 0.3125 μM, 0.625 μM, 1.25 μM, 2.5 μM, and 5 μM were added respectively. The group without polypeptide added was used as a control.
(§4) (4) The samples were collected 24 h after the infection of EV71 virus, and RNA was extracted with the total RNA extraction kit.
(§5) (5) The supernatant was discarded, then 350 μL of TRK lysate was added to each well, and the plate was put on a shaker for 5 min.
(§6) (6) 350 μL of 70% ethanol (DEPC) was added to each well, and then the plate was put on a shaker for 5 min.
(§7) (7) The solution in each well was transferred to a RNA extraction column for 1 min of centrifugation at 12000 g.
(§8) (8) The solution obtained in the recovery tube was reloaded on the column again for 1 min of centrifugation at 12000 g.
(§9) (9) RNA washing buffer 1 was added in the column for 30 s of centrifugation at 12000 g.
(§10) (10) RNA washing buffer 2 was added in the column for 1 min of centrifugation at 12000 g.
(§11) (11) Step (10) was repeated.
(§12) (12) The column alone was centrifuged at 12000 g for 2 min to completely remove the residual RNA washing buffer.
(§13) (13) 50 μL of DEPC water was added to the column for 2 min of centrifugation at 12000 g.
(§14) (14) 2 μL of RNA sample was subjected to a fluorescence quantitative experiment using the one step qRT-PCR kit.
(1) Vero E6 cells were plated in a 24-well plate.
(3) After 1 h, different polypeptides (LQ or SQ) with final concentrations of 0.3125 μM, 0.625 μM, 1.25 μM, 2.5 μM, and 5 μM were added respectively. The group without polypeptide added was used as a control.

[2] = Cytotoxicity of polypeptides in Vero cells (CCK-8); assay type: cell-based; settings: for CC50 at 24 h: African green monkey, Table 1 (Vero cells); for viability at 24 h, 0.073242 µM: polypeptide 0.073242 μM; for viability at 24 h, 0.146484 µM: polypeptide 0.146484 μM; for viability at 24 h, 0.292969 µM: polypeptide 0.292969 μM; for viability at 24 h, 0.585938 µM: polypeptide 0.585938 μM; for viability at 24 h, 1.17188 µM: polypeptide 1.171875 μM; for viability at 24 h, 2.34375 µM: polypeptide 2.34375 μM; for viability at 24 h, 4.6875 µM: polypeptide 4.6875 μM; for viability at 24 h, 9.375 µM: polypeptide 9.375 μM; for viability at 24 h, 18.75 µM: polypeptide 18.75 μM; for viability at 24 h, 150 µM: polypeptide 150 μM
Procedure: (§15) Therefore, this standard was testified by cytotoxicity assay, and the cells without any treatment were used as a control group.
(§16) (1) Vero cells were plated in a 96-well plate at 100 μL per well.
(§17) (2) When the cells grew to a confluence of 70%-80%, the DMEM medium containing 10% serum was replaced with a DMEM medium containing 2% serum, and a certain concentration gradient of polypeptide RQ or LQ or SQ was added, so that the final concentrations of the polypeptide in the wells were 0.073242 μM, 0.146484 μM, 0.292969 μM, 0.585938 μM, 1.171875 μM, 2.34375 μM, 4.6875 μM, 9.375 μM, 18.75 μM, 37.5 μM, 75 μM and 150 μM, respectively.
(§18) (3) The samples were collected 24 h after the addition of the polypeptide, and then 10 μL of live cell detection reagent CCK-8 was added to each well and mixed well.
(§19) (4) The plate was placed at 37° C. for 2 h.
(§20) (5) The absorbance value at OD450 was detected by a microplate reader.
(§21) The CC50 of each polypeptide was calculated taking the cell viability of untreated cells as 100%.

Vero cells = assay: Cytotoxicity of polypeptides in Vero cells (CCK-8); assay type: cell-based; settings: Vero cells, 24 h
Procedure: as §15, §16, §17, §18, §19, §20, §21

EV71 [3] = assay: Inhibition of EV71 in RD cells (viral RNA, qRT-PCR); assay type: cell-based, enterovirus 71 (EV71); settings: EV71, 24 h after infection
Procedure: as §1, §2, §3, §4, §5, §6, §7, §8, §9, §10, §11, §12, §13, §14
(3) After 1 h, different polypeptides (RQ or control TAT) with final concentrations of 0.3125 μM, 0.625 μM, 1.25 μM, 2.5 μM and 5 μM were added respectively. The group without polypeptide added was used as a control.

[4] = Vero cells, 24 h, read-out: Cell viability (%)

Compound	IC50 (EV71 [1])	CC50 at 24 h [2]	viability at 24 h, 0.073242 µM [2, 4]	viability at 24 h, 0.146484 µM [2, 4]	viability at 24 h, 0.292969 µM [2, 4]	viability at 24 h, 0.585938 µM [2, 4]	viability at 24 h, 1.17188 µM [2, 4]	viability at 24 h, 2.34375 µM [2, 4]	viability at 24 h, 4.6875 µM [2, 4]	viability at 24 h, 9.375 µM [2, 4]	viability at 24 h, 18.75 µM [2, 4]	viability at 24 h, 150 µM [2, 4]	Cell viability (%) (Vero cells; polypeptide 0.073242 μM)	Cell viability (%) (Vero cells; polypeptide 0.146484 μM)	Cell viability (%) (Vero cells; polypeptide 0.292969 μM)	Cell viability (%) (Vero cells; polypeptide 0.585938 μM)	Cell viability (%) (Vero cells; polypeptide 1.171875 μM)	Cell viability (%) (Vero cells; polypeptide 2.34375 μM)	Cell viability (%) (Vero cells; polypeptide 4.6875 μM)	Cell viability (%) (Vero cells; polypeptide 9.375 μM)	also measured
CC[C@H](C)[C@H](NC(=O)[C@H](C)NC(=O)[C@H](CO)NC(=O)[C@H](CCCNC(=N)N)NC(=O)[C@H](CC(N)=O)NC(=O)[C@H](CC(N)=O)NC(=O)[C@H](Cc1ccc(O)cc1)NC(=O)[C@H](CCC(=O)O)NC(=O)[C@H](CCCNC(=N)N)NC(=O)[C@@H](NC(=O)[C@H](CC(C)C)NC(=O)[C@H](CCC(=O)O)NC(=O)[C@H](CO)NC(=O)CNC(=O)[C@H](CO)NC(=O)CNC(=O)[C@H](CCCNC(=N)N)NC(=O)[C@H](CCCNC(=N)N)NC(=O)[C@H](CCCNC(=N)N)NC(=O)[C@H](CCC(N)=O)NC(=O)[C@H](CCCNC(=N)N)NC(=O)[C@H](CCCNC(=N)N)NC(=O)[C@H](CCCCN)NC(=O)[C@H](CCCCN)NC(=O)[C@H](CCCNC(=N)N)NC(=O)CNC(=O)[C@@H](N)Cc1ccc(O)cc1)[C@@H](C)CC)C(=O)NCC(=O)N[C@@H](CC(N)=O)C(=O)N[C@H](C(=O)N[C@H](C(=O)N[C@@H](CCC(=O)O)C(=O)N[C@@H](C)C(=O)N[C@@H](CC(C)C)C(=O)N[C@@H](Cc1ccccc1)C(=O)N[C@@H](CCC(N)=O)C(=O)O)[C@@H](C)CC)[C@@H](C)O [SQ]	10.3 µM	134 µM	104%	98%	101%	94.4%	90.1%	96.6%	105%	99.5%	106%	70%	103.4468% and 96.07%	94.606% and 92.7401%	103.1624% and 100.4524%	103.9959% and 100.6225%	94.07% and 98.81%	101.1325% and 99.03%	106.7734% and 95.3706%	102.9859% and 103.7701%	Cell viability (%) (Vero cells; polypeptide 18.75 μM): 100.481% and 90.25%; Cell viability (%) (Vero cells; polypeptide 37.5 μM): 100.7644% and 90.65% and 80.6%; Cell viability (%) (Vero cells; polypeptide 75 μM): 90.36% and 95.75% and 70.31%; Cell viability (%) (Vero cells; polypeptide 150 μM): 80.35% and 60.9948%
MBP-CVA16 2C protein																					helicase activity (unwinding of HEX-labeled dsRNA substrate, gel electrophoresis) (polypeptide RQ): RQ inhibited the helicase activity of CVA16 2C in a dose-dependent manner
AC-qflaeitngiasrnnyergsgrrrqrrkkrgy-NH2 [RQ-DRI]																					Percentage of viral RNA in RD cells (%) (EV71 [3]; polypeptide 0.3125 μM): 90.2% and 150.7832% and 85.04%; Percentage of viral RNA in RD cells (%) (EV71 [3]; polypeptide 0.625 μM): 113.2834% and 92.13% and 108.0728%; Percentage of viral RNA in RD cells (%) (EV71 [3]; polypeptide 1.25 μM): 93.12% and 79.48% and 58.29%; Percentage of viral RNA in RD cells (%) (EV71 [3]; polypeptide 2.5 μM): 24.4% and 38.77% and 23.45%; Percentage of viral RNA in RD cells (%) (EV71 [3]; polypeptide 5 μM): 21.2764% and 19.04% and 17.19%
CC[C@H](C)[C@H](NC(=O)[C@H](C)NC(=O)[C@H](CO)NC(=O)[C@H](CCCNC(=N)N)NC(=O)[C@H](CC(N)=O)NC(=O)[C@H](CC(N)=O)NC(=O)[C@H](Cc1ccc(O)cc1)NC(=O)[C@H](CCC(=O)O)NC(=O)[C@H](CCCNC(=N)N)NC(=O)[C@@H](NC(=O)[C@H](CC(C)C)NC(=O)CNC(=O)[C@H](CO)NC(=O)CNC(=O)[C@H](CCCNC(=N)N)NC(=O)[C@H](CCCNC(=N)N)NC(=O)[C@H](CCCNC(=N)N)NC(=O)[C@H](CCC(N)=O)NC(=O)[C@H](CCCNC(=N)N)NC(=O)[C@H](CCCNC(=N)N)NC(=O)[C@H](CCCCN)NC(=O)[C@H](CCCCN)NC(=O)[C@H](CCCNC(=N)N)NC(=O)CNC(=O)[C@@H](N)Cc1ccc(O)cc1)[C@@H](C)CC)C(=O)NCC(=O)N[C@@H](CC(N)=O)C(=O)N[C@H](C(=O)N[C@H](C(=O)N[C@@H](CCC(=O)O)C(=O)N[C@@H](C)C(=O)N[C@@H](CC(C)C)C(=O)N[C@@H](Cc1ccccc1)C(=O)N[C@@H](CCC(N)=O)C(=O)O)[C@@H](C)CC)[C@@H](C)O [LQ]	2.26 µM	> 150 µM	100%	103%	112%	110%	111%	105%	111%	114%	109%	72.2%	105.9% and 97.02%	104.7744% and 101.9913%	106.5265% and 104.7619%	110.5563% and 108.0087%	115.1555% and 110.4762%	106.3075% and 107.1861%	104.8489% and 112.5108%	119.5795% and 113.5931%	viability at 24 h, 37.5 µM ([2]; Vero cells, polypeptide 37.5 μM, 24 h, read-out: Cell viability (%)): 117%; Cell viability (%) (Vero cells; polypeptide 18.75 μM): 115.6373% and 110.3247%; Cell viability (%) (Vero cells; polypeptide 37.5 μM): 99.1853% and 97.1429%; Cell viability (%) (Vero cells; polypeptide 75 μM): 108.2318% and 87.6084% and 90.8658%; Cell viability (%) (Vero cells; polypeptide 150 μM): 83.0968% and 80.9091%
